The target in experiment [1] is T1, human GLP-1R (Homo sapiens, UniProt P43220, C347A).
T1 construct: gene GLP1R; full-length receptor expressed in HEK293 cells; C347A mutant carries a 1xFLAG tag
Kind of experiment: HTRF cAMP accumulation, HEK293 cells. It is filed as cell-based. An excerpt:
(§1) HTRF cAMP accumulation, HEK293 cells on human GLP-1R
A general note: Time-resolved FRET reads energy transfer from a long-lived donor to a nearby acceptor.

Experiment [2] deals with T2, human GLP-1R (Homo sapiens, UniProt P43220).
T2 construct: gene GLP1R; full-length receptor expressed in HEK293 cells; C347A mutant carries a 1xFLAG tag
Kind of experiment: HTRF cAMP accumulation, HEK293 cells. Format: cell-based.
Source text: as §1

For a further experiment, the target named is T3, human CatL (Homo sapiens, UniProt P07711).
T3 construct: gene CTSL; commercial cathepsin L (Calbiochem)
Kind of experiment: fluorogenic Z-Phe-Arg-AMC hydrolysis. It is filed as biochemical.

The target of experiment [3] is T2, human GLP-1R. Kind of experiment: anti-FLAG immunoprecipitation, PAGE fluorography. Format: cell-based. To be noted: 500 nM [3H]BETP, 2 h, 37 °C, GLP-1R-3xFLAG in HEK293; covalent; labelled compound.
Where [4] appears, read: read-out: EC50, C347A (nM) (S.D., n).
Where [5] appears, read: read-out: Compound, EC50 WT (nM) (S.D., n).
Where [6] appears, read: read-out: Compound, EC50, C347A (nM) (S.D., n).
[7] abbreviates: read-out: Compound, EC50, WT (nM) (S.D., n).

Read-outs that look alike come from different tables or passages of the source.

T1 sequence (P43220 24-463 C347A): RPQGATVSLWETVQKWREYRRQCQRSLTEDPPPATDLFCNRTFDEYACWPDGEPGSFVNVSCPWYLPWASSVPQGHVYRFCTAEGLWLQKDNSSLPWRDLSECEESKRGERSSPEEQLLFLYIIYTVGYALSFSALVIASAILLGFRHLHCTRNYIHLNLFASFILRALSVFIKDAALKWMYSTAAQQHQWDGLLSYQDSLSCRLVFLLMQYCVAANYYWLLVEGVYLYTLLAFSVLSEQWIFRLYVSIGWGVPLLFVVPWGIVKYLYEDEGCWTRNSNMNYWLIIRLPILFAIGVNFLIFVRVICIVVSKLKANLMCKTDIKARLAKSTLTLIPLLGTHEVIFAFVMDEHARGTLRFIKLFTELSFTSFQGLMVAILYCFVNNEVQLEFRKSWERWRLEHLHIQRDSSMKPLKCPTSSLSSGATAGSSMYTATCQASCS
T3 sequence (P07711 114-288 limits assumed): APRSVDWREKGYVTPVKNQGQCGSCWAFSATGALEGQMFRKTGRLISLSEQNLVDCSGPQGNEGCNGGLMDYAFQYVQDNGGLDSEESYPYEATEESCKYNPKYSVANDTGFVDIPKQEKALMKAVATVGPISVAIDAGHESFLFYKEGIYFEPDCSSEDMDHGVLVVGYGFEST
T3 sequence (P07711 292-333 limits assumed): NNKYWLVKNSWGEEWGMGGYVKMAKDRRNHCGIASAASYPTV
T2 sequence (P43220 24-463): as the sequence (P43220 24-463 C347A) above, with A324C counted along it

Usually EC50 stands for the midpoint of the concentration-response curve. For orientation: IC50 means the concentration needed to halve the response being measured. Take `CC[S+]([O-])c1nc(-c2cccc(OCc3ccccc3)c2)cc(C(F)(F)F)n1` (centres unmarked) [BETP, 4-(3-benzyloxyphenyl)-2-ethylsulfinyl-6-(trifluoromethyl)pyrimidine]: the 50% effective concentration (EC50) on human GLP-1R [1] (setting [4]) is > 30000 nM; at human GLP-1R [2] (setting [5]), 1300 nM. Moreover, the 50% inhibitory concentration (IC50) on human CatL (read-out: CatL,^c IC50) was > 33 µM. The “anti-FLAG immunoprecipitation, PAGE fluorography” value on human GLP-1R [3] was “The finding that [^3H]BETP irreversibly labels the GLP-1R”.
For the compound `O=C(NCc1ccccc1)[C@H](Cc1ccccc1)NC(=O)[C@H]1O[C@@H]1C(=O)NCCc1ccc(O)cc1` [CAA0225, (2S,3S)-N2-[(1S)-1-benzyl-2-(benzylamino)-2-oxo-ethyl]-N3-[2-(4-hydroxyphenyl)ethyl]oxirane-2,3-dicarboxamide, reference compound], the half-inhibitory concentration (IC50) on human CatL (read-out: IC50) amounted to 0.006 µM.
For `Cc1nnc(Sc2nc3cc(Cl)c(Cl)cc3nc2C(F)(F)F)s1` [compound 1], the EC50 is > 30000 nM on human GLP-1R [1] (setting [4]) and 860 nM on human GLP-1R [2] (setting [5]).
Consider `CC(C)(C)Nc1nc2cc(Cl)c(Cl)cc2nc1S(C)(=O)=O` [compound 2], for which the EC50 on human GLP-1R [1] (setting [4]) was > 30000 nM; on human GLP-1R [2] (setting [5]), 25 nM.
Taken in the same sequence, the figures for `FC(F)(F)c1nc2cc(Cl)c(Cl)cc2nc1Cl` [compound 3] were > 30000 nM and 4700 nM.
`CC1(C)CC(=O)c2c(S(C)(=O)=O)sc(-c3nnc(-c4ccc(C(C)(C)C)cc4)o3)c2C1` [compound 5]: the EC50 was > 30000 nM on human GLP-1R [1] (setting [4]) and 1500 nM at human GLP-1R [2] (setting [5]).
As for `CC1(C)CC(=O)c2c(S(C)(=O)=O)sc(C(=O)c3ccc(-c4ccccc4)cc3)c2C1` [compound 6], the EC50 is > 30000 nM on human GLP-1R [1] (setting [4]) and 1430 nM at human GLP-1R [2] (setting [5]).
In the case of `FC(F)(F)c1nc2ccccc2nc1Sc1ccc(Cl)cc1` [compound 7], the half-maximal effective concentration (EC50) on human GLP-1R [2] (setting [5]) is > 30000 nM.
On the same count and under the same terms, as for `O=C(Oc1cccc(-c2cn3cc(C(F)(F)F)cc(Cl)c3n2)c1)C1CCCCC1` [compound 8], the figure is > 30000 nM.
Consider `Cc1ccc(-c2cccc(C(=O)NC(Cc3ccc(-c4noc(-c5ccc(NC(=O)OC(C)(C)C)cc5)n4)c(F)c3)C(=O)O)c2)cc1` (centres unmarked) [compound 9], for which the values for the EC50 at human GLP-1R [1] (setting [4]) and at human GLP-1R [2] (setting [5]) were 1400 nM and 1500 nM, respectively.
For the compound `Clc1nc2c(-c3ccccc3)nnn2c2ccccc12` [compound 11], the EC50 was > 30000 nM at human GLP-1R [1] (setting [6]) and 7000 nM on human GLP-1R [2] (setting [7]). Further, on human CatL (read-out: CatL,^c IC50), the IC50 was > 33 µM.
Taken in the same sequence, the figures for `CS(=O)(=O)c1nc(-c2ccccc2)cc(-c2ccccc2)c1C#N` [compound 12] were > 30000 nM, 6000 nM and > 33 µM.
Consider `CCOC(=O)c1ccc(N2Cc3ccccc3C(=Cc3ccc(Br)cc3)C2=N)cc1` [compound 13], for which the EC50 is > 30000 nM on human GLP-1R [1] (setting [6]) and 1000 nM at human GLP-1R [2] (setting [7]). For the same compound, at human CatL (read-out: CatL,^c IC50), the IC50 was > 33 µM.
With `Clc1nc2ccc3nsnc3c2nc1Cl` [compound 14], at human GLP-1R [1] (setting [6]), the concentration for a half-maximal effect (EC50) was > 30000 nM. Also, the IC50 on human CatL (read-out: CatL,^c IC50) was > 33 µM.
Regarding `O=S(=O)(c1ccccc1)c1nc(-c2ccccc2)ns1` [compound 15], the results for the concentration for a half-maximal effect (EC50) at human GLP-1R [1] (setting [6]) and at human GLP-1R [2] (setting [7]) were > 30000 nM and 1300 nM, respectively. Also, the IC50 on human CatL (read-out: CatL,^c IC50) was 25 µM.
Take `CS(=NC(=O)Nc1ccc(Cl)cc1)c1sc(Cl)c2c1C(=O)CCC2` (centres unmarked) [compound 16]: the concentration giving a half-maximal response (EC50) at human GLP-1R [1] (setting [6]) was > 30000 nM; on human GLP-1R [2] (setting [7]), 5200 nM. The IC50 at human CatL (read-out: CatL,^c IC50) was determined as 12 µM.
For the compound `O=[N+]([O-])c1ccc2nc(S(=O)(=O)c3ccc(Cl)cc3)sc2c1` [compound 17], at human GLP-1R [1] (setting [6]), the EC50 was > 30000 nM. In addition, the IC50 on human CatL (read-out: CatL,^c IC50) is 8 µM.
As to `CC(=O)NC1=C(Cl)C(=O)c2ccccc2C1=O` [compound 18], the concentration giving a half-maximal response (EC50) on human GLP-1R [1] (setting [6]) is > 30000 nM.
Still for that read-out and setting: with `O=C1C=CC(=O)N1c1cccc(C(F)(F)F)c1` [compound 19] the figure was > 30000 nM.
With `CCSc1nc(-c2cccc(OCc3ccccc3)c2)cc(C(F)(F)F)n1` [th-BETP, 4-(3-benzyloxyphenyl)-2-ethylsulfanyl-6-(trifluoromethyl)pyrimidine], the EC50 on human GLP-1R [2] (setting [5]) was > 30000 nM.

Values taken from PMC4865917, “Positive Allosteric Modulation of the Glucagon-like Peptide-1 Receptor by Diverse Electrophiles” (The Journal of Biological Chemistry, 2016).
